According to ChEMBL document CHEMBL3085700 (J Med Chem, 2013):
Calls of active or inactive are those of the source. The rule behind the calls is not given here.

Experiments:
[1] = target: Cannabinoid receptor 1 (Rattus norvegicus) (UniProt P20272); assay: Antagonist activity at CB1 receptor in rat cerebellar membranes assessed as HU210-evoked response up to 10 uM incubated for 10 mins prior to testing by [35S]GTPgammaS binding assay; type: functional, cell membranes; conditions: Cerebellum, Membrane
Chain of Cannabinoid receptor 1 (Rattus norvegicus) (P20272 whole entry): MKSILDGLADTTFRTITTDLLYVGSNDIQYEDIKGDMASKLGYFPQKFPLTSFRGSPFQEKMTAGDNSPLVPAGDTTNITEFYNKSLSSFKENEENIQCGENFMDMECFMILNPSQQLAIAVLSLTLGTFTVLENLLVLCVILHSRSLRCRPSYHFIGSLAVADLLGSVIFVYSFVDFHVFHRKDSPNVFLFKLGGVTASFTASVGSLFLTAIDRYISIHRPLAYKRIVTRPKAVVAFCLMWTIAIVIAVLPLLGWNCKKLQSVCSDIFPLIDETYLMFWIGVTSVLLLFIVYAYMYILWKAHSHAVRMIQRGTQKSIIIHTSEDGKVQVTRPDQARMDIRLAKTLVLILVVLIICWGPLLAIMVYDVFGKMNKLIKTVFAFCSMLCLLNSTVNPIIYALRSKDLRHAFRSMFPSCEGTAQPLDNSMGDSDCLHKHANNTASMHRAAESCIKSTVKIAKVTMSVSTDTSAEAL

[2] = target: T1, Prostaglandin G/H synthase 2 (Homo sapiens) (UniProt P35354); assay: Inhibition of human recombinant COX-2 assessed as inhibition of 2-AG cyclooxygenation at 100 uM measured within 10 to 50 secs relative to control
T1 sequence (whole entry): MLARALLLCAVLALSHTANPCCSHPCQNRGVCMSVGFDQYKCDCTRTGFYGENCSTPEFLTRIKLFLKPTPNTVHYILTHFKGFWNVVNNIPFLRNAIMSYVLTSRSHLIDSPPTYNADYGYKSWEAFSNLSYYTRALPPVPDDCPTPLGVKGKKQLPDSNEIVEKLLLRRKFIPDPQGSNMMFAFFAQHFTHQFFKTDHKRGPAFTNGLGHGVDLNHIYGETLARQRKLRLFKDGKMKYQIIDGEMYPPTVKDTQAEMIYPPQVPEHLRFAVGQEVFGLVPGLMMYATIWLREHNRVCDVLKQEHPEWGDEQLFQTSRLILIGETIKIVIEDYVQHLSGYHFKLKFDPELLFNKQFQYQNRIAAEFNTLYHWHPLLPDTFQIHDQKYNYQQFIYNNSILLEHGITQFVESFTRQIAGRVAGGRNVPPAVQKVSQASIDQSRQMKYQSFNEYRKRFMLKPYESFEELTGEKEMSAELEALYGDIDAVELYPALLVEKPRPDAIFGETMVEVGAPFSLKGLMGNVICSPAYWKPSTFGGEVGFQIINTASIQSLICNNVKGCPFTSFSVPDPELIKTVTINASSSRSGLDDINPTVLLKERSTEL

[3] = target: T2, Monoacylglycerol lipase ABHD6 (Homo sapiens) (UniProt Q9BV23); assay: Inhibition of human ABHD6 overexpressed in HEK293 cells assessed as 2-AG hydrolysis at 1 uM by fluorescent glycerol assay; type: cell-based
T2 sequence (whole entry): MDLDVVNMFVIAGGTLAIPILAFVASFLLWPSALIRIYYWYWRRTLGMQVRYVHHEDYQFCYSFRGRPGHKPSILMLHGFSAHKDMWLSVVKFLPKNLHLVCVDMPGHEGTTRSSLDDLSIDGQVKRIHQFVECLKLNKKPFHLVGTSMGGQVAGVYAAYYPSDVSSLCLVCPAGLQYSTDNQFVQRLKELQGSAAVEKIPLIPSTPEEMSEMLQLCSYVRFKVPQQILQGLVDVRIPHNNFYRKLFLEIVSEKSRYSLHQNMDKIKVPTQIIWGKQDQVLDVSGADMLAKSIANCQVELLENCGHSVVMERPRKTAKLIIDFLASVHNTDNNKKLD

[4] = target: T1, Prostaglandin G/H synthase 2 (Homo sapiens); assay: Inhibition of human recombinant COX-2 assessed as inhibition of 2-AG cyclooxygenation at 30 uM measured within 10 to 50 secs relative to control
Homo sapiens = species: Homo sapiens; assay: Selectivity ratio for human recombinant FAAH over human recombinant COX-2
[5] = target: T1, Prostaglandin G/H synthase 2 (Homo sapiens); assay: Inhibition of human recombinant COX-2 using arachidonic acid as substrate assessed as oxygen consumption at 30 to 100 uM measured within 10 to 50 secs relative to control
[6] = target: T1, Prostaglandin G/H synthase 2 (Homo sapiens); assay: Inhibition of human recombinant COX-2 assessed as inhibition of 2-AG cyclooxygenation at 10 uM measured within 10 to 50 secs relative to control
[7] = target: T3, Fatty-acid amide hydrolase 1 (Homo sapiens) (UniProt O00519); assay: Inhibition of human recombinant FAAH overexpressed in African green monkey COS7 cells using [3H]-anandamide as substrate at 10 to 100 uM preincubated for 10 to 60 mins by liquid scintillation counting analysis; type: cell-based; conditions: COS-7
T3 sequence (whole entry): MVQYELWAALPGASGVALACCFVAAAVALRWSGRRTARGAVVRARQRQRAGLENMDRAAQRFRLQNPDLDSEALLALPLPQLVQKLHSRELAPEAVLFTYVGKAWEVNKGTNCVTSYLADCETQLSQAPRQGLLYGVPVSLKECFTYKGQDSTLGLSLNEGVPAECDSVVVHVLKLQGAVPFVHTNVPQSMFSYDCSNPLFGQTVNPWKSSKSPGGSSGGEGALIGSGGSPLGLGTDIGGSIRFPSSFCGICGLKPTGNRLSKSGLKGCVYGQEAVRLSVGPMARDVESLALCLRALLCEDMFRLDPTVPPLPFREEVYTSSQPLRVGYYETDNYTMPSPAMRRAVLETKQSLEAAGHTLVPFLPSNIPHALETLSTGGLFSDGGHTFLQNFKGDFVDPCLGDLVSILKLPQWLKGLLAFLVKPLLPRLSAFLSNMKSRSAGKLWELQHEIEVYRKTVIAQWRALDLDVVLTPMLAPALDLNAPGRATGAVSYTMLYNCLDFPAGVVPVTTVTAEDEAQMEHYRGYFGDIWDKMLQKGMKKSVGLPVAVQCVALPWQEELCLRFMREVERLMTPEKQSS

COc1nn([C@@H](C)c2ccc(CC(C)C)cc2)c(=O)o1
Activity [1]: inactive | inhibition [2]: 30% | inhibition [3]: inactive | inhibition [4]: 20% | Selectivity ratio (Homo sapiens): > 900 | inhibition [5]: 30% | inhibition [6]: 10% | inhibition [7]: Active
